According to patent US20230322785A1, “ADENOSINE A2A AND A2B RECEPTOR DUAL ANTAGONISTS FOR IMMUNO-ONCOLOGY” (Merck Sharp & Dohme LLC, priority 2020, published 2023):

These compounds were tested against T1, human A2A adenosine receptor (Homo sapiens, UniProt P29274) (assay: A2A binding affinity, Method (A): radioligand filtration binding with [3H]SCH58261). Conditions: membranes of HEK293 or CHO cells expressing the human receptor.
T1 construct: expressed in transfected cells; host or cells: HEK293 or CHO cells
T1 sequence (P29274 whole entry): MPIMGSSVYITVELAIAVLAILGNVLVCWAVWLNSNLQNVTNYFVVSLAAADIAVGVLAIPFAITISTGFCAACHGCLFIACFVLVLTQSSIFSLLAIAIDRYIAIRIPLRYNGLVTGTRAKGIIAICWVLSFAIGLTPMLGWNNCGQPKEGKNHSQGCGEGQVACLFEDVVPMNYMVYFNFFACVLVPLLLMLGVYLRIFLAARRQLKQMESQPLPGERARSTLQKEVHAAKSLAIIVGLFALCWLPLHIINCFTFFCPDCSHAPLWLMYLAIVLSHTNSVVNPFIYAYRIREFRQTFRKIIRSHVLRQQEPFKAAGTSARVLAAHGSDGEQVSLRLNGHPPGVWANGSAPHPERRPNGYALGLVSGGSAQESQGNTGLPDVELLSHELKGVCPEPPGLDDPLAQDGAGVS
Text: Method (A) describes the procedure used to measure A2A binding affinity using radioligand binding. Method (B) describes the procedure used to measure A2A binding affinity using SPA technology. The method used to measure A2B binding affinity is also described below. The method used to determine the A2A IC50 value reported for each compound in the table is indicated next to the reported value. The A2B IC50 value measured using the A2B binding affinity assay is shown in the table next to the compound under the corresponding A2A value.
The A2A receptor affinity binding assay measured the amount of binding of a tritiated ligand with high affinity for the A2A adenosine receptor to membranes made from HEK293 or CHO cells recombinantly expressing the human A2A adenosine receptor, in the presence of varying concentrations of a compound of the invention. The data were generated using either filtration binding or a homogenous scintillation proximity assay (SPA).
Method (A): Measurement of A2A Binding Affinity Using Radioligand Binding
148 µL (5 µg/mL) membranes (Perkin Elmer, Cat. No. RBHA2aM400UA) and 2 µL compounds of the invention to be tested (test compound) were transferred to individual wells of a 96-well polypropylene assay plate and incubated for 15 to 30 min at room temperature. [^3H] SCH58261 ((7-(2-phenylethyl)-5-amino-2-(2-furyl)-pyrazolo-[4,3-e]-1,2,4-triazolo[1,5-c]pyrimidine)) was diluted in assay buffer (50 mM Tris pH 7.4, 10 mM MgCl2, 0.005% Tween20) to a concentration of 4 nM and 50 µL transferred to each well of the assay plate. To define total and non-specific binding, wells containing 1% DMSO and 1 µM ZM241385 (Tocris Bioscience, Cat. No. 1036) respectively, were also included. The assay plate was incubated at room temperature for 60 min with agitation. Using a FilterMate Harvester® (Perkin Elmer), the contents of the assay plate were filtered through a UniFilter-96® PEI coated plate (Perkin Elmer Cat. No. 6005274 or 6005277). Filtering was achieved by aspirating the contents of the assay plate for 5 sec, then washing and aspirating the contents three times with ice-cooled wash buffer (50 mM Tris-HCl pH 7.4, 150 mM NaCl) and allowing the vacuum manifold to dry the plate for 30 sec. The filter plate was incubated for at least 1 h at 55° C. and allowed to dry. The bottom of the filter plate was sealed with backing tape. 40 µL Ultima Gold™ (Perkin Elmer, Cat. No. 6013329) was added to each well of the filter plate and the top of the plate was sealed with TopSeal-A PLUS® clear plate seal (Perkin Elmer, Cat. No. 6050185). The plate was incubated for at least 20 min, and then the amount of radioactivity remaining in each well was determined using a TopCount® (Perkin Elmer) scintillation counter. After normalization to total and non-specific binding, the percent effect at each compound concentration was calculated. The plot of percent effect versus the log of compound concentration was analyzed electronically using a 4-parameter logistic fit based on the Levenberg-Marquardt algorithm to generate IC50 values.

Structure (SMILES)	IC50 [nM]
COc1cc(F)cc2c1nc(N)n1nc(CCN3Cc4cnc(C(C)C)n4CC3=O)nc21 [Example 26.3, 7-(2-(5-amino-9-fluoro-7-methoxy-[1,2,4]triazolo[1,5-c]quinazolin-2-yl)ethyl)-3-isopropyl-7,8-dihydroimidazo[1,5-a]pyrazin-6(5H)-one]	6.4
COc1cccc2c1nc(N)n1nc(CNC(=O)c3ccc(C(C)(C)O)cc3)nc21 [Example 2.1, N-((5-amino-7-methoxy-[1,2,4]triazolo[1,5-c]quinazolin-2-yl)methyl)-4-(2-hydroxypropan-2-yl)benzamide]	0.6
COc1cc(F)cc2c1nc(N)n1nc(CNC(c3ccc(C(C)(C)O)cc3)C(F)(F)F)nc21 (single isomer, unassigned) [Example 25.3B, (R or S)-2-(4-(1-(((5-amino-9-fluoro-7-methoxy-[1,2,4]triazolo[1,5-c]quinazolin-2-yl)methyl)amino)-2,2,2-trifluoroethyl)phenyl)propan-2-ol]	29.2
COc1cc(F)cc2c1nc(N)n1nc(CNC(=O)c3c(F)cc(C(C)(C)O)cc3F)nc21 [Example 3.4, N-((5-amino-9-fluoro-7-methoxy-[1,2,4]triazolo[1,5-c]quinazolin-2-yl)methyl)-2,6-difluoro-4-(2-hydroxypropan-2-yl)benzamide]	11.1
COc1cccc2c1nc(N)n1nc(CNC(=O)c3ccc(S(N)(=O)=O)cc3)nc21 [Example 4.10, N-((5-amino-7-methoxy-[1,2,4]triazolo[1,5-c]quinazolin-2-y1)methyl)-4-sulfamoylbenzamide]	636
COc1cccc2c1nc(N)n1nc(CCNc3cnn(C)c3)nc21 [Example 23.2, 7-methoxy-2-(2-((1-methyl-1H-pyrazol-4-yl)amino)ethyl)-[1,2,4]triazolo[1,5-c]quinazolin-5-amine]	4.2
COc1cccc2c1nc(N)n1nc(CNC(=O)c3ccc(C(C)(O)C(F)(F)F)cc3)nc21 (single isomer, unassigned) [Example 2.7B, (R or S)-N-((5-amino-7-methoxy-[1,2,4]triazolo[1,5-c]quinazolin-2-yl)methyl)-4-(1,1,1-trifluoro-2-hydroxypropan-2-yl)benzamide]	0.5
COc1cccc2c1nc(N)n1nc(CNC(=O)c3ccc(C(C)(C)O)cn3)nc21 [Example 4.2, N-((5-amino-7-methoxy-[1,2,4]triazolo[1,5-c]quinazolin-2-yl)methyl)-5-(2-hydroxypropan-2-yl)picolinamide]	1.4
COc1cccc2c1nc(N)n1nc(CCN(C)c3cnn(C)c3)nc21 [Example 24.4, 7-methoxy-2-(2-(methyl(1-methyl-1H-pyrazol-4-yl)amino)ethyl)-[1,2,4]triazolo[1,5-c]quinazolin-5-amine]	0.9
COc1cccc2c1nc(N)n1nc(CN(C)Cc3ccc(S(N)(=O)=O)cc3)nc21 [Example 9.2, 4-((((5-amino-7-methoxy-[1,2,4]triazolo[1,5-c]quinazolin-2-yl)methyl)(methyl)amino)methyl)benzenesulfonamide]	2.5
COc1cc(F)cc2c1nc(N)n1nc(CNC(C)(C)c3ccc(C(C)(C)O)cc3)nc21 [Example 11.9, 2-(4-(2-(((5-amino-9-fluoro-7-methoxy-[1,2,4]triazolo[1,5-c]quinazolin-2-yl)methyl)amino)propan-2-yl)phenyl)propan-2-ol]	1.1
COc1cccc2c1nc(N)n1nc(CNC(=O)c3ccc(C(C)(O)C(F)(F)F)cc3)nc21 (single isomer, unassigned) [Example 2.7A, (S or R)-N-((5-amino-7-methoxy-[1,2,4]triazolo[1,5-c]quinazolin-2-yl)methyl)-4-(1,1,1-trifluoro-2-hydroxypropan-2-yl)benzamide]	0.3
COc1cccc2c1nc(N)n1nc(CN3CC(c4ccncc4)C3)nc21 [Example 11.14, 7-methoxy-2-((3-(pyridin-4-yl)azetidin-1-yl)methyl)-[1,2,4]triazolo[1,5-c]quinazolin-5-amine]	9.1

Each compound was assayed against T1, human A2A adenosine receptor (assay: A2A binding affinity, Method (B): scintillation proximity assay (SPA) with [3H]SCH58261). Conditions: membranes of HEK293 or CHO cells expressing the human receptor.
Method in brief: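 Membranes from HEK293 or CHO cells expressing the receptor were pretreated with 20 µg/mL adenosine deaminase for 15 min, then bound to WGA SPA beads. [3H]SCH58261 was added at 1.25 nM in Ca/Mg-free DPBS with 10 mM MgCl2, incubated 1 h at RT, then settled 1 h. Non-specific binding used 1 µM CGS 15943. IC50 came from 4-parameter logistic fits.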

Structure (SMILES)	IC50 [nM]
COc1cccc2c1nc(N)n1nc(C[C@@H](C)NCc3oc(C)nc3C)nc21 [Example 24.3, (R)-2-(2-(((2,4-dimethyloxazol-5-yl)methyl)amino)propyl)-7-methoxy-[1,2,4]triazolo[1,5-c]quinazolin-5-amine]	11.1
COc1cccc2c1nc(N)n1nc(CN(Cc3ccc(OC(F)(F)F)cc3)CC3CCCC3)nc21 [Example 15.9, 2-(((cyclopentylmethyl)(4-(trifluoromethoxy)benzyl)amino)methyl)-7-methoxy-[1,2,4]triazolo[1,5-c]quinazolin-5-amine]	123
COc1cccc2c1nc(N)n1nc(CCNCc3ccc(C(F)(F)F)cc3)nc21 [Example 22.3, 7-methoxy-2-(2-((4-(trifluoromethyl)benzyl)amino)ethyl)-[1,2,4]triazolo[1,5-c]quinazolin-5-amine]	16.7
COc1cccc2c1nc(N)n1nc(CNC(=O)CCc3ccccc3)nc21 [Example 2.2, N-((5-amino-7-methoxy-[1,2,4]triazolo[1,5-c]quinazolin-2-yl)methyl)-3-phenylpropanamide]	12.7
COc1cccc2c1nc(N)n1nc(CC(=O)N[C@H]3CCOc4cc(F)ccc43)nc21 [Example 4.7, (S)-2-(5-amino-7-methoxy-[1,2,4]triazolo[1,5-c]quinazolin-2-yl)-N-(7-fluorochroman-4-yl)acetamide]	6.7
CCN(CC)Cc1nc2c3cccc(OC)c3nc(N)n2n1 [Example 5.3, 2-((diethylamino)methyl)-7-methoxy-[1,2,4]triazolo[1,5-c]quinazolin-5-amine]	24.4
COc1cccc2c1nc(N)n1nc(CNCCc3ccc(C(F)(F)F)cc3)nc21 [Example 8.8]	17.3
COc1cccc2c1nc(N)n1nc(CNCC3(c4cccc(F)c4)CCOCC3)nc21 [Example 10.14, 2-((((4-(3-fluorophenyl)tetrahydro-2H-pyran-4-yl)methyl)amino)methyl)-7-methoxy-[1,2,4]triazolo[1,5-c]quinazolin-5-amine]	6.4
COc1cccc2c1nc(N)n1nc(CN(CC(C)O)CC(C)O)nc21 (stereo not drawn) [Example 10.13, 1,1-(((5-amino-7-methoxy-[1,2,4]triazolo[1,5-c]quinazolin-2-yl)methyl)azanediyl)bis(propan-2-ol)]	32.2
COc1cccc2c1nc(N)n1nc(CN[C@H](C)C3CC3)nc21 [Example 7.8, (R)-2-(((1-cyclopropylethyl)amino)methyl)-7-methoxy-[1,2,4]triazolo[1,5-c]quinazolin-5-amine]	12
COc1cccc2c1nc(N)n1nc(CN[C@H](C)[C@@H](O)c3cc(C(F)(F)F)cc(C(F)(F)F)c3)nc21 [Example 10.1, (1S,2R)-2-(((5-amino-7-methoxy-[1,2,4]triazolo[1,5-c]quinazolin-2-yl)methyl)amino)-1-(3,5-bis(trifluoromethyl)phenyl)propan-1-ol]	40.2
CCN(Cc1ccccn1)Cc1nc2c3cccc(OC)c3nc(N)n2n1 [Example 7.4, 2-((ethyl(pyridin-2-ylmethyl)amino)methyl)-7-methoxy-[1,2,4]triazolo[1,5-c]quinazolin-5-amine]	31.4
COc1cccc2c1nc(N)n1nc(CNCC3CC3)nc21 [Example 10.12, 2-(((cyclopropylmethyl)amino)methyl)-7-methoxy-[1,2,4]triazolo[1,5-c]quinazolin-5-amine]	27.3
COc1cccc2c1nc(N)n1nc(CNCC(F)(F)F)nc21 [Example 10.5, 7-methoxy-2-(((2,2,2-trifluoroethyl)amino)methyl)-[1,2,4]triazolo[1,5-c]quinazolin-5-amine]	5.9
